{"source": "patent US20250230193A1", "about": "“CYCLIC COMPOUND HAVING SELECTIVE KRAS INHIBITORY EFFECT ON HRAS AND NRAS” (CHUGAI SEIYAKU KABUSHIKI KAISHA, priority 2022, published 2025)", "key": {"[1]": {"biological_target": "GDP-bound NRAS wild-type protein (Homo sapiens, UniProt P01111)", "sequence (P01111 whole entry)": "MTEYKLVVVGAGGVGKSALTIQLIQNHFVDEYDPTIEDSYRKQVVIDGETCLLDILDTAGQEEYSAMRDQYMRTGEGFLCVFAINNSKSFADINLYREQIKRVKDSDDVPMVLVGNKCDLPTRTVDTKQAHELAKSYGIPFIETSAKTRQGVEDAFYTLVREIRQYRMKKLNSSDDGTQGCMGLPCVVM", "test": "Binding to NRAS by surface plasmon resonance (SPR), Single Cycle Kinetics", "settings": "for NRAS/KRAS (ratio of KD value with respect to NRAS to KD value with respect to KRAS) / NRAS/KRAS (ratio of KD value for NRAS to KD value for KRAS): GDP-bound NRAS wild-type vs GDP-bound KRAS wild-type"}, "[2]": {"biological_target": "GDP-bound HRAS wild-type protein (Homo sapiens, UniProt P01112)", "sequence (P01112 whole entry)": "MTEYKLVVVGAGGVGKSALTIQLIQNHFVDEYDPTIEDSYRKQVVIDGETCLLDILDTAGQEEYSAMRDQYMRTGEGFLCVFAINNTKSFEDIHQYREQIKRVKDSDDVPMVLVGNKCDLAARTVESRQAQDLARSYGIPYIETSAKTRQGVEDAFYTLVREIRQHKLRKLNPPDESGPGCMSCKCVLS", "test": "Binding to HRAS by surface plasmon resonance (SPR), Single Cycle Kinetics", "settings": "for HRAS/KRAS (ratio of KD value with respect to HRAS to KD value with respect to KRAS) / HRAS/KRAS (ratio of KD value for HRAS to KD value for KRAS): GDP-bound HRAS wild-type vs GDP-bound KRAS wild-type"}}}
{"compound": "CCO[C@@H]1C[C@H]2C(=O)NC3(CCC3)C(=O)N(C)[C@@H](C3CCCC3)C(=O)N(C)[C@H](C(=O)N(C)C)CC(=O)N(C)[C@@H](CC)C(=O)N[C@@H]([C@@H](C)CC)C(=O)N(C)CC(=O)N(C)[C@H]3CCCCN(C3=O)[C@@H](Cc3ccc(C(F)(F)F)cc3)C(=O)N(C)CC(=O)N[C@@H](CCc3c(F)c(F)c(C(F)(F)F)c(F)c3F)C(=O)N2C1", "note": "[PP0886]", "values": [{"measurement": "NRAS/KRAS (ratio of KD value with respect to NRAS to KD value with respect to KRAS)", "setting": "[1]; SPR", "value": "C (A compound having a KD ratio of 0.1 or more and less than 3 is denoted as C)"}, {"measurement": "HRAS/KRAS (ratio of KD value with respect to HRAS to KD value with respect to KRAS)", "setting": "[2]; SPR", "value": "B (a compound having 3 or more and less than 10 is denoted as B)"}]}
{"compound": "CCO[C@@H]1C[C@H]2C(=O)NC3(CCC3)C(=O)N(C)[C@@H](C3CCCC3)C(=O)N(C)[C@H](C(=O)N(C)C)CC(=O)N(C)[C@@H](CC)C(=O)N[C@@H]([C@@H](C)CC)C(=O)N(C)CC(=O)N(C)[C@H]3CCCCCN(C3=O)[C@@H](Cc3ccc(F)c(F)c3)C(=O)N(C)CC(=O)N[C@@H](CCc3cc(F)c(C(F)(F)F)c(F)c3)C(=O)N2C1", "note": "[PP0907]", "values": [{"measurement": "NRAS/KRAS (ratio of KD value with respect to NRAS to KD value with respect to KRAS)", "setting": "[1]; SPR", "value": "B (a compound having 3 or more and less than 10 is denoted as B)"}, {"measurement": "HRAS/KRAS (ratio of KD value with respect to HRAS to KD value with respect to KRAS)", "setting": "[2]; SPR", "value": "B (a compound having 3 or more and less than 10 is denoted as B)"}]}
{"compound": "CC[C@H](C)[C@@H]1NC(=O)[C@H](CC(C)C)N(C)C(=O)C[C@@H](C(=O)N2CCOCC2)N(C)C(=O)[C@H](C2CCCC2)N(C)C(=O)C2(CCC2)NC(=O)[C@]2(C)CCCN2C(=O)[C@H](CCc2cc(F)c(C(F)(F)F)c(F)c2)NC(=O)CN(C)C(=O)[C@H](Cc2ccc(C(F)(F)F)cc2)N2CCCC[C@@H](C2=O)N(C)C(=O)CN(C)C1=O", "note": "[PP0808]", "values": [{"measurement": "NRAS/KRAS (ratio of KD value with respect to GDP-bound NRAS wild-type protein to KD value with respect to KRAS)", "setting": "[1]; SPR", "value": "B (a compound having 3 or more and less than 10 is denoted as B)"}, {"measurement": "HRAS/KRAS (ratio of KD value with respect to GDP-bound HRAS wild-type protein to KD value with respect to KRAS)", "setting": "[2]; SPR", "value": "B (a compound having 3 or more and less than 10 is denoted as B)"}]}
{"compound": "CC[C@H](C)[C@@H]1NC(=O)[C@H](CC(C)C)N(C)C(=O)C[C@@H](C(=O)N(C)C)N(C)C(=O)[C@H](C2CCCC2)N(C)C(=O)C2(CC(C)(C)C2)NC(=O)[C@@H]2C[C@H](C)CN2C(=O)[C@H](CCc2cc(F)c(C(F)(F)F)c(F)c2)NC(=O)CN(C)C(=O)[C@H](Cc2ccc(C(F)(F)F)cc2)N2CC/C=C\\C[C@@H](C2=O)N(C)C(=O)CN(C)C1=O", "note": "[PP1662]", "values": [{"measurement": "NRAS/KRAS (ratio of KD value for NRAS to KD value for KRAS)", "setting": "[1]; SPR", "value": "A (a compound having 10 or more and less than 20 is denoted as A)"}, {"measurement": "HRAS/KRAS (ratio of KD value for HRAS to KD value for KRAS)", "setting": "[2]; SPR", "value": "B (a compound having 3 or more and less than 10 is denoted as B)"}]}
{"compound": "CCO[C@@H]1C[C@H]2C(=O)NC3(CC(C)(C)C3)C(=O)N(C)[C@@H](C3CCCC3)C(=O)N(C)[C@H](C(=O)N(C)CC)CC(=O)N(C)[C@@H](CC(C)C)C(=O)N[C@@H]([C@@H](C)CC)C(=O)NCC(=O)N(C)[C@H]3C/C=C\\CCN(C3=O)[C@@H](Cc3ccc(C(F)(F)F)cc3)C(=O)N(C)CC(=O)N[C@@H](CCc3cc(F)c(C(F)(F)F)c(F)c3)C(=O)N2C1", "note": "[PP1771]", "values": [{"measurement": "NRAS/KRAS (ratio of KD value for NRAS to KD value for KRAS)", "setting": "[1]; SPR", "value": "A (a compound having 10 or more and less than 20 is denoted as A)"}, {"measurement": "HRAS/KRAS (ratio of KD value for HRAS to KD value for KRAS)", "setting": "[2]; SPR", "value": "A (a compound having 10 or more and less than 20 is denoted as A)"}]}
{"compound": "CCO[C@@H]1C[C@H]2C(=O)NC3(CCC3)C(=O)N(C)[C@@H](C3CCCC3)C(=O)N(C)[C@H](C(=O)N(C)C)CC(=O)N(C)[C@@H](COC)C(=O)N[C@@H]([C@@H](C)CC)C(=O)N3CC[C@H]3C(=O)N(C)[C@H]3CCCCCN(C3=O)[C@@H](Cc3ccc(C(F)(F)F)cc3)C(=O)N(C)CC(=O)N[C@@H](CCc3cc(F)c(C(F)(F)F)c(F)c3)C(=O)N2C1", "note": "[PP0864]", "values": [{"measurement": "NRAS/KRAS (ratio of KD value with respect to NRAS to KD value with respect to KRAS)", "setting": "[1]; SPR", "value": "B (a compound having 3 or more and less than 10 is denoted as B)"}, {"measurement": "HRAS/KRAS (ratio of KD value with respect to HRAS to KD value with respect to KRAS)", "setting": "[2]; SPR", "value": "B (a compound having 3 or more and less than 10 is denoted as B)"}]}
{"compound": "CCO[C@@H]1C[C@H]2C(=O)NC3(CCC3)C(=O)N(C)[C@@H](C3CCCC3)C(=O)N(C)[C@H](C(=O)N3CCOCC3)CC(=O)N(C)[C@@H](CC(C)C)C(=O)N[C@@H]([C@H](C)CC)C(=O)N(C)CC(=O)N(C)[C@H]3CCCCCN(C3=O)[C@@H](Cc3ccc(C(F)(F)F)cc3)C(=O)N(C)CC(=O)N[C@@H](CCc3cc(F)c(C(F)(F)F)c(F)c3)C(=O)N2C1", "note": "[PP0815]", "values": [{"measurement": "NRAS/KRAS (ratio of KD value with respect to NRAS to KD value with respect to KRAS)", "setting": "[1]; SPR", "value": "B (a compound having 3 or more and less than 10 is denoted as B)"}, {"measurement": "HRAS/KRAS (ratio of KD value with respect to HRAS to KD value with respect to KRAS)", "setting": "[2]; SPR", "value": "B (a compound having 3 or more and less than 10 is denoted as B)"}]}
{"compound": "CCC(CC)[C@H]1C(=O)N(C)[C@H](C(=O)N(C)C)CC(=O)N(C)[C@@H](COC)C(=O)N[C@@H]([C@@H](C)CC)C(=O)N(C)CC(=O)N(C)[C@H]2C/C=C\\CCN(C2=O)[C@@H](Cc2ccc(C(F)(F)F)cc2)C(=O)N(C)CC(=O)N[C@@H](CCc2ccc(Cl)c(Cl)c2)C(=O)N2CCOC[C@H]2C(=O)NC2(CC(C)(C)C2)C(=O)N1C", "note": "[PP2941]", "values": [{"measurement": "NRAS/KRAS (ratio of KD value with respect to GDP-bound NRAS wild-type protein to KD value with respect to KRAS)", "setting": "[1]; class symbols", "value": "AA (a compound having 20 or more is denoted as AA)"}, {"measurement": "HRAS/KRAS (ratio of KD value with respect to GDP-bound HRAS wild-type protein to KD value with respect to KRAS)", "setting": "[2]; class symbols", "value": "A (a compound having 10 or more and less than 20 is denoted as A)"}]}
